From patent US6469138B1, “Thrombospondin receptor binding peptides” (Washington University, priority 1993, dated 2002)
Entries after “also recorded” stand apart in the source; their conditions may differ. Values belong to the molecule of their own block, whether it stands above or below them. Where a SMILES comes first, the peptide text is derived from it. Where no end group is shown, it is not given here.

Legend:
[1] = tested on: K562 human erythroleukemia cells; assay: Attachment of K562 cells to immobilized TS1, LM or rCBD; assay type: cell-based; conditions: protein-coated wells
Procedure: (§1) FIGS. 6A, 6B, 6C and 6D show the attachment of four cell types to immobilized TS-1 and LM. Wells were coated with the indicated concentrations of TS1 (▪) or LM (●). Assays were performed as described under “Methods” hereinafter with (FIG. 6A)—G361 human melanomas; (FIG. 6B)—K562 erythroleukemia cells; (FIG. 6C)—HT1080 fibrosarcomas; and (FIG. 6D)—C32 amelanotic melanomas added to the wells.
(§2) Cell Adhesion Assay—Cell adhesion was performed in 96-well plates by conventional procedures as previously described (Prater et al., 1991; Kosfeld and Frazier, 1992). Synthetic peptides were solubilized with 6 N guanidine HCl (GnHCl) because some hydrophobic peptides were insoluble at concentrations approaching 1 mM in TBS. […] The efficiency of coupling of all peptides was greater than 90% as judged by UV absorbance. […]
(§3) After blocking, cells were allowed to attach for 1 hr at 37° C. to substrate-coated wells or beads. In some tests, inhibition was determined by adding peptide inhibitors of cell attachment to each well along with the cells. After removal of non-adhering cells, cells attached to immobilized substrates were quantitated with endogenous cellular phosphatase activity which is measured by absorption at 410 nm as previously described (Prater et al., 1991). […]

Solubility of peptides = assay type: physicochemical; conditions: for solubility: insoluble at higher concentrations, read-out: solubility limit
[2] = tested on: HT1080 human fibrosarcomas; assay: Attachment of HT1080 cells to immobilized TS1 or LM; assay type: cell-based; conditions: protein-coated wells
Procedure: as §1, §2, §3

C32 human melanoma = assay: Attachment of C32 cells to immobilized TS1 or LM; assay type: cell-based; conditions: protein-coated wells
Procedure: as §1, §2, §3

G361 human melanomas = assay: Attachment of G361 cells to immobilized TS1 or LM; assay type: cell-based; conditions: protein-coated wells
Procedure: as §1, §2, §3

G361 cells [3] = assay: Inhibition by soluble peptides of G361 cell attachment to immobilized rCBD of TS1; assay type: cell-based, human; conditions: for inhibition of G361 cell attachment to rCBD (in words): soluble peptide inhibitor, immobilized rCBD
Procedure: FIGS. 3A and 3B show the effect of the active subpeptides of C4 and C7 on G361 cell attachment to the rCBD of TS1. To microtiter wells containing immobilized rCBD (10 μg/ml), G361 cells were added with (FIG. 3A) 4N1-1 (●), 7N3-1 (▪), 4N1-1 plus 7N3-1 (▴) and with (FIG. 3B) 4N1 (▪), 7N3 (●) and 4N1 plus 7N3 (▴). The cells were incubated for 1.5 hr in the wells and cell attachment was determined. The effects of these subpeptides on cell attachment are expressed as percent relative to the maximum cell attachment for each test where 100% is the number of cells binding to rCBD-coated well in the absence of peptide inhibitors.
After blocking, cells were allowed to attach for 1 hr at 37° C. to substrate-coated wells or beads. In some tests, inhibition was determined by adding peptide inhibitors of cell attachment to each well along with the cells. After removal of non-adhering cells, cells attached to immobilized substrates were quantitated with endogenous cellular phosphatase activity which is measured by absorption at 410 nm as previously described (Prater et al., 1991). Each assay was carried out in duplicate and each peptide was tested in 3 separate tests at 3 or more different concentrations.
To be sure that the active peptides from C4 and C7 contain the sequences that are relevant for attachment of cells to the CBD, the shorter, more soluble active peptides were tested as soluble inhibitors of the binding of G361 cells to rCBD immobilized on plastic wells. […] In contrast, 4N1-1 and 4N1, the active subpeptides for C4, are insoluble at concentrations higher than 0.2 mM and thus must be tested as soluble inhibitors at concentrations below this solubility limit. It should be noted that inclusion of peptides in the cell attachment assay at these concentrations had no adverse effects on the cells. The results of this complementary bioassay confirmed those of the direct cell adhesion assays (FIGS. 1 and 2). […] The inhibition was dose-dependent at peptide concentrations <0.1 mM for 4N1 and 7N3 and <0.2 mM for 4N1-1 and 7N3-1. […] Each peptide is present at ½ the indicated concentration. In the case of 4N1 plus 7N3, the inhibition was nearly complete (87%). […] To evaluate the contribution of adjacent sequences to activity, peptide 7N2-2 which contained the N-terminal sequence of 7N3-1, and 7N3-1 were examined in inhibition studies.

G361 cells [4] = assay: Direct attachment of G361 cells to peptides adsorbed on microtiter wells (cell adhesion assay); assay type: cell-based, human; conditions: peptide adsorbed to plastic wells; cells 1 hr at 37° C.; in words
Procedure: Equimolar concentrations of peptides shown in FIG. 1A were evaluated as attachment factors for G361 cells. Peptides C4 (¤), 4N (●), 4N1 (▴), 4N1-1 (♦), 4N2 (▪) and 4C ([formula]) were adsorbed to microtiter plates at the indicated concentrations. Cells were added to the wells and incubated for 1 hour at 37° C. The attached cells were quantitated as described under “Materials and Methods” hereinbelow, and the actual absorbance due to endogenous cellular phosphatase hydrolysis of p-Nitrophenyl phosphate at 410 nm is plotted.
Microtiter wells were adsorbed with peptides C7 (▪), 7N (●), 7N3 (▴), 7N3-1 (♦), 7N2 (▪), 7N2-2 (∘), 7N3-2 (▴) and 7C, 7N1 or 7N2-1 ([formula]) at various concentrations and the attachment of G361 cells was determined. The numbers of cells attached to these peptides were correlated with the cellular phosphatase activity which is expressed as absorbance at 410 nm.
Cell Adhesion Assay—Cell adhesion was performed in 96-well plates by conventional procedures as previously described (Prater et al., 1991; Kosfeld and Frazier, 1992). […] The efficiency of coupling of all peptides was greater than 90% as judged by UV absorbance. […]
After blocking, cells were allowed to attach for 1 hr at 37° C. to substrate-coated wells or beads. In some tests, inhibition was determined by adding peptide inhibitors of cell attachment to each well along with the cells. […]

[5] = target: thrombospondin 1 (TS1) receptor
[6] = target: thrombospondin 1 (TS1) receptor; remark: listed apart in the source
[7] = target: thrombospondin 1 (TS1) receptor; remark: listed apart in the source

Molecule: rCBD: recombinant COOH-terminal cell binding domain of TS1 expressed in bacteria as protein A-CBD fusion protein
attachment of K562 cells to immobilized protein [1]: bound well

Molecule: TS1: thrombospondin 1, extracellular matrix protein
attachment of HT1080 cells to immobilized protein [2]: bound well
attachment of C32 cells to immobilized protein (C32 human melanoma): much more avidly than to LM
attachment of G361 cells to immobilized protein (G361 human melanomas): bound well
attachment of K562 cells to immobilized protein [1]: much more avidly than to LM

Molecule: Gly-Arg-Val-Val-Met (GRVVM)
inhibition of G361 cell attachment to rCBD (in words) (G361 cells [3]): inactive

Molecule: FIRVVMYEGKK [7N3]
cell attachment activity (direct attachment of G361 cells to immobilized peptide) (G361 cells [4]): significant activity
inhibition of G361 cell attachment to rCBD-coated surfaces (G361 cells [3]; rCBD 10 μg/ml immobilized, soluble peptide, combinations: each peptide at ½ the indicated concentration): ~50%

Molecule: CSCC[C@H](NC(=O)[C@@H](NC(=O)[C@@H](NC(=O)[C@H](Cc1ccc(O)cc1)NC(=O)[C@H](Cc1ccccc1)NC(=O)[C@@H](N)CCCNC(=N)N)C(C)C)C(C)C)C(=O)N[C@@H](Cc1c[nH]c2ccccc12)C(=O)N[C@@H](CCCCN)C(=O)N[C@@H](CCC(N)=O)C(=O)N[C@H](C(=O)N[C@H](C(=O)N[C@@H](CCC(N)=O)C(=O)N[C@@H](CO)C(=O)O)[C@@H](C)O)C(C)C [4N1, Arg-Phe-Tyr-Val-Val-Met-Trp-Lys-Gln-Val-Thr-Gln-Ser] (H-RFYVVMWKQVTQS-OH; N-terminus and C-terminus assumed)
solubility (Solubility of peptides): ≤ 200 µM

Molecule: Ile-Glu-Val-Val-Met (IEVVM)
inhibition of G361 cell attachment to rCBD (in words) (G361 cells [3]): inactive

Molecule: RFYVVM [4N1-2]
cell attachment activity (direct attachment of G361 cells to immobilized peptide) (G361 cells [4]): little or no activity
inhibition of G361 cell attachment to rCBD (in words) (G361 cells [3]): as potent as the longer 4N1-1; also recorded: active

Molecule: Ile-Arg-Val-Val-Gly (IRVVG)
inhibition of G361 cell attachment to rCBD (in words) (G361 cells [3]): inactive

B2: 4N1 (peptide)
peptide: RFYVVMWKQVTQS
inhibition of G361 cell attachment to rCBD-coated wells [5]: 30 % inhibition

B3: 4N1-1 (peptide)
peptide: RFYVVMWK
attachment of G361 cells to peptide adsorbed to microtiter wells (absorbance at 410 nm) (% of the maximum activity of 4N1) [6]: 60
inhibition of G361 cell attachment to rCBD-coated wells [5]: 30 % inhibition
inhibition of G361 cell attachment to LM-coated wells (LM receptor): 32 % inhibition
inhibition of K562 cell attachment to immobilised rCBD [7]: 36 % inhibition

Other lines, results leading:

solubility (Solubility of peptides): ≤ 200 µM
Molecule: CSCC[C@H](NC(=O)[C@@H](NC(=O)[C@@H](NC(=O)[C@H](Cc1ccc(O)cc1)NC(=O)[C@H](Cc1ccccc1)NC(=O)[C@@H](N)CCCNC(=N)N)C(C)C)C(C)C)C(=O)N[C@@H](Cc1c[nH]c2ccccc12)C(=O)N[C@@H](CCCCN)C(=O)O [4N1-1, Arg-Phe-Tyr-Val-Val-Met-Trp-Lys]

solubility (in words) (Solubility of peptides): highly soluble
Molecule: CC[C@H](C)[C@H](N)C(=O)N[C@@H](CCCNC(=N)N)C(=O)N[C@H](C(=O)N[C@H](C(=O)N[C@@H](CCSC)C(=O)O)C(C)C)C(C)C [7N3-1, Ile-Arg-Val-Val-Met] (H-IRVVM-OH; N-terminus and C-terminus assumed)

inhibition of G361 cell attachment to rCBD-coated wells [5]: 50 % inhibition
B1: 7N3 (peptide)
peptide: FIRVVMYEGKK

inhibition of G361 cell attachment to rCBD-coated wells [5]: 25 % inhibition
inhibition of G361 cell attachment to LM-coated wells (LM receptor): 50 % inhibition
inhibition of K562 cell attachment to immobilised rCBD [7]: 28 % inhibition
B4: 7N3-1 (peptide)
peptide: IRVVM
